Data published in US20100028889A1, “COMPANION DIAGNOSTIC ASSAYS FOR CANCER THERAPY” (ABBOTT LABORATORIES, priority 2006, published 2010).
Where two headings read alike, the source gives them in different places.

How the values were obtained:
Rec-1 = experiment: cell cytotoxicity EC50, CellTiter Glo, Mantle Cell Lymphoma cell line, Rec-1 sub-clone batch listed second; type: cell-based, human
Procedure: The SCLC and leukemia/lymphoma cell lines listed below were obtained from the American Type Culture Collection (Manassas, Va.), Deutsche Sammlung von Mikroorganismen und Zellkulturen (DSMZ, Braunsweig, Germany), or were the generous gift from Dr. Louis Staudt (National Cancer Institute) and were cultured as described in Tse, C., Shoemaker, A. R., Adickes, J., et al., “ABT-263: a potent and orally bioavailable Bcl-2 family inhibitor,” Cancer Res 2008; 68: 3421-3428; and Tahir, S. K., Yang, X., Anderson, M. G., et al., “Influence of Bcl-2 family members on the cellular response of small-cell lung cancer cell lines to ABT-737,” Cancer Res 2007; 67: 1176-1183.
(§1) Cells were treated at 10,000 or 50,000 cells per well for adherent or suspension cells, respectively, in 96-well microtiter plates in the presence of 10% human serum for 48 hours with or without ABT-263, in a humidified chamber with 5% CO2. ABT-263 was synthesized as previously described in Tse, C., Shoemaker, A. R., Adickes, J., et al., “ABT-263: a potent and orally bioavailable Bcl-2 family inhibitor,” Cancer Res 2008; 68: 3421-3428; and Oltersdorf, T., Elmore, S. W., Shoemaker, A. R., et al., “An inhibitor of Bcl-2 family proteins induces regression of solid tumours,” Nature 2005; 435: 677-681, and cell cytotoxicity EC50 values were assessed using CellTiter Glo (Promega, Madison Wis.).

[1] = test system: leukemia/lymphoma cell lines; experiment: categorisation of the leukemia/lymphoma cell line panel by EC50; type: cell-based, human; conditions: EC50 less than or equal to 4.8 μM
Procedure: as §1
o divide the training set cell lines into sensitive and resistant categories, a bivariate fit curve was generated for the ABT-263 EC50 versus rank and fitted with a smoothing spline (lambda=1), and the maximum increase in the slope was approximately 5 μM for both sets. […]
Division of cell lines into sensitive and resistant categories. […] To identify gene expression patterns that can predict sensitivity to ABT-263, as well as genes that might contribute to resistance to treatment, RNA expression profiles for a panel of SCLC cell lines were determined, as well as a panel of leukemia and lymphoma cell lines. […]

NCI-H524 = experiment: sensitivity of SCLC cell line, procedure of Oltersdorf; type: cell-based; conditions: Homo sapiens, read-out: sensitivity class by EC50
Procedure: (§2) The following SCLC cell lines were obtained from ATCC (Manassis, Va.): NCI-H889, NCI-H1963, NCI-H1417, NCI-H146, NCI-H187, DMS53, NCI-H510, NCI-H209, NCI-H211, NCI-H345, NCI-H524, NCI-H69, DMS79, SHP77, NCI-H1688, NCI-H446, NCI-H740, NCI-H1048, NCI-H82, NCI-H196, SW1271, H69AR, NCI-H526, NCI-H865, NCI-H748, NCI-H711, and DMS114. All cells were cultured in the ATCC recommended media at 37° C. in a humidified atmosphere containing 5% CO2. The following leukemia and lymphoma cell lines were obtained from ATCC (Manassis, Va.): MV-4-11, RS4;11, Loucy, KG-1A, DOHH2, Rs11380, CCRF-HSB-2, CCRF-CEM, CEM/C1, Reh, SUP-B15, MOLT-4, SUDHL4, HL-60, RPMI 8226, A3, Daudi, WSU-NHL, Pfeiffer, Jurkat I 9.2, Jurkat, MEG-01, U-937, K-562, and Raji.
(§3) The 27 SCLC cell lines were tested for sensitivity to ABT-737 using the procedure described in Oltersdorf, T., “An inhibitor of Bcl-2 family proteins induces regression of solid tumours”, Nature, 435: 677-681, 2005, with a cell line classified as sensitive if its EC50<5 μM and as resistant if its EC50>5 µM. The sensitive cell line group consisted of NCI-H889, NCI-H1963, NCI-H1417, NCI-H146, DMS 53, NCI-H187, NCI-H510, NCI-H209, NCI-H345, NCI-H526, NCI-H211, NCI-H865, NCI-H524, NCI-H748, DMS 79, NCI-H69, NCI-H711, SHP 77, NCI-H1688, and the resistant cell line group was comprised of NCI-H446, NCI-H740, NCI-H1048, NCI-H82, NCI-H196, SW1271, DMS 114, and NCI-H69AR.

NCI-H526 = experiment: as above; type: cell-based; conditions: Homo sapiens, read-out: sensitivity class by EC50
Procedure: as §2, §3

NCI-H711 = experiment: as above; type: cell-based; conditions: Homo sapiens, read-out: sensitivity class by EC50
Procedure: as §2, §3

NCI-H748 = experiment: as above; type: cell-based; conditions: Homo sapiens, read-out: sensitivity class by EC50
Procedure: as §2, §3

NCI-H865 = experiment: as above; type: cell-based; conditions: Homo sapiens, read-out: sensitivity class by EC50
Procedure: as §2, §3

solid tumors = conditions: in vivo; cited from earlier work

Compound	EC50 (Rec-1; Homo sapiens, Rec1, read-out: Response Designation) [µM]	EC50 (Rec-1; Rec1, 10% human serum, 48 hours, read-out: EC50) [µM]	leukemia/lymphoma cell lines categorized as being sensitive [1]	EC50 (NCI-H524) [µM]	EC50 (NCI-H526) [µM]	EC50 (NCI-H711) [µM]	EC50 (NCI-H748) [µM]	EC50 (NCI-H865) [µM]	effect on solid tumors (solid tumors)
CC1(C)CCC(c2ccc(Cl)cc2)=C(CN2CCN(c3ccc(C(=O)NS(=O)(=O)c4ccc(N[C@H](CCN5CCOCC5)CSc5ccccc5)c(S(=O)(=O)C(F)(F)F)c4)cc3)CC2)C1 [ABT-263, N-(4-(4-((2-(4-chlorophenyl)-5,5-dimethyl-1-cyclohex-1-en-1-yl)methyl)piperazin-1-yl)benzoyl)-4-(((1R)-3-(morpholin-4-yl)-1-((phenylsulfanyl)methyl)propyl)amino)-3-((trifluoromethyl)sulfonyl)benzenesulfonamide]	≤ 4.8	0.698	25 out of 31						
CN(C)CC[C@H](CSc1ccccc1)Nc1ccc(S(=O)(=O)NC(=O)c2ccc(N3CCN(Cc4ccccc4-c4ccc(Cl)cc4)CC3)cc2)cc1[N+](=O)[O-] [ABT-737, N-(4-(4-((4′-chloro(1,1′-biphenyl)-2-yl)methyl)piperazin-1-yl)benzoyl)-4-(((1R)-3-(dimethylamino)-1-((phenylsulfanyl)methyl)propyl)amino)-3-nitrobenzenesulfonamide]				< 5	< 5	< 5	< 5	< 5	induce regression of solid tumors
